Results taken from the NIST ThermoML archive (doi:10.1021/acs.jced.5b00986).
± gives the expanded uncertainty stated by the source.

Details: Liquid, Dynamic light scattering

Row | thermal diffusivity (423.73 K) [m2/s] | thermal diffusivity (448.23 K) [m2/s] | thermal diffusivity (473.1 K) [m2/s] | thermal diffusivity (498.16 K) [m2/s] | thermal diffusivity (523.18 K) [m2/s] | thermal diffusivity (448.09 K) [m2/s] | thermal diffusivity (448.57 K) [m2/s] | thermal diffusivity (473.26 K) [m2/s] | Compound
1 | 5.83e-08 ± 3e-09 | 5.23e-08 ± 2.2e-09 | 4.87e-08 ± 2e-09 | 4.58e-08 ± 3.4e-09 | 4.25e-08 ± 2.6e-09 | – | – | – | CCCCCCCCCCCC [dodecane]
2 | – | – | – | – | – | 6.57e-08 ± 3.4e-09 | 6.73e-08 ± 4.3e-09 | 6.86e-08 ± 8e-09 | CCCCCCCCCCCCCCCCCCCCCCCCCCCCCCCCCCCCCCCC [tetracontane]
